melting point [°C]	SMILES
141 to 142	CCN(CC)CCNC(=O)N1CCCC(S(=O)(=O)c2ccc(Cl)cc2)C1 (stereo not given)
> 280	O=C(Nc1cccc(-c2ncnc3[nH]c(-c4ccncc4)cc23)c1)c1cccc(C(F)(F)F)c1
169 to 175	N#CCC(=O)Nc1ccnn1-c1c(Cl)cc(C(F)(F)F)cc1Cl
257	Nc1ccc(-c2noc(-c3cnn4c(C(F)(F)F)cc(-c5ccc(C(F)(F)F)cc5)nc34)n2)cn1
195 to 196	COc1cc2nc(S(=O)Cc3cccn4ccnc34)[nH]c2cc1OC (stereo not given)
165 to 166	Cc1ccccc1S(=O)(=O)NC(=O)CCc1cc(OC(C)C)nn1Cc1ccc(Cl)cc1Cl
274 to 278	Nc1c(NC=O)c(=O)[nH]c(=O)n1Cc1ccc(Cl)cc1
165 to 167	O=C1CSc2ccc(S(=O)(=O)Cl)cc2N1
272 to 273	CC(=O)Nc1ccc(C2=NNC(=O)NC2C)cc1 (stereo not given)
75 to 76	C=C(F)C(C)(C)C(=O)Nc1ccc(Cl)cc1
159 to 162	CCOC(=O)c1cn(-c2cc(N)c(F)cc2F)c2c(OC)c(F)c(F)cc2c1=O
140 to 141	FC(F)(F)c1nnc2sc3ccccc3n12
133 to 134	CN(C)c1nc2cc(Br)ccn2n1
255	COc1ccc(N2CCN(c3ccc(N4C(=O)NC(C)(C)C4=O)cc3)CC2)cc1
149 to 150	CCS(=O)(=O)Nc1cc(-c2ncnc(Cl)c2Cl)c(F)cc1C#N
79 to 80	CCOC(=O)c1c(N)sc(-c2ccc(OC)cc2)c1C
145	COC(=O)C1=C(C)NC(C)=C(C(=O)OCOC(=O)C(C)C)C1c1cccc(Cl)c1Cl (stereo not given)
231	NS(=O)(=O)c1cccc(-c2noc(-c3cnn4c(C(F)F)cc(-c5ccc(Cl)cc5)nc34)n2)c1
165 to 166	CCc1nc2c(-c3ccc(Cl)cc3Cl)nccn2c1C(C)O (stereo not given)
193 to 195	CCOC(=O)CCc1c(-c2cc(Cl)ccc2OC)c2cc(C(F)(F)F)ccc2[nH]c1=O

melting point [°C]	SMILES
132 to 134	CCN(Cc1cc(Cl)ccc1OCC(C)C)c1ccc(C(=O)O)nn1
134 to 137	CCCCOC(=O)c1nn(-c2ccc(I)cc2)c(C)cc1=O
129 to 131	CCOC(=O)c1c(-c2cccc(F)c2)c(C#N)n2c1CN(C(=O)OC(C)(C)C)CC2
211 to 213	CN(C)C=Nc1nc(=O)n(-c2ccsc2)cc1F
281 to 283	CN(C)S(=O)(=O)c1cc(-n2c(=O)cc(C(F)(F)F)[nH]c2=O)ccc1Cl
> 300	O=C1Nc2ccc3cn[nH]c3c2C1=O
94 to 95	CCc1noc(NS(=O)(=O)c2ccccc2)c1C
214	CC(C)(C)OC(=O)c1ncn2c1CN(C(=O)N1CCCC1)c1c(F)cccc1-2
201 to 202	COc1ccc(Cl)cc1C(=O)NC1Cc2cc(S(=O)(=O)NC(=S)NC(C)C)c(OC)cc2OC1(C)C (stereo not given)
161 to 164	CCc1cc(C(C)=O)c(O)cc1OCc1cccc(C(=O)O)c1
214 to 216	N#Cc1csc(N2C(=O)C(Cc3ccccc3)NC2=S)n1 (stereo not given)
148 to 150	CCN(CC)C(=O)Nc1ccc(S(=O)(=O)Cl)cc1
108 to 109	C[C@]1(CN2CCC(Nc3ccc(OC(F)(F)F)cc3)CC2)Cn2cc([N+](=O)[O-])nc2O1
215 to 218	N#CC(Cc1c[nH]cn1)(c1ccccc1)c1ccc(Cl)cc1Cl (stereo not given)
331 to 335	NC(=O)c1nc(-c2cccnc2O)nc2c1[nH]c(=O)n2-c1ccccc1C(F)(F)F
155 to 157	CCCCn1c(=O)[nH]c2c(Cl)cc(OC)c(OC)c2c1=N
145 to 146	COc1ccc(-c2cc(C(=O)NCc3ccccc3)c(=O)n(C)n2)cc1
262 to 263	COc1cccc(-c2cc3c(Nc4cccc(Cl)c4)ncnc3[nH]2)c1
97 to 99	CCOC(=O)c1ccc(OCCCCC2CC3=C(C2)C(=O)C(OC)=C(OC)C3=O)cc1

More lines, now with the values behind:

SMILES	melting point [°C]
O=C1c2ccccc2C(=O)N1CCc1nnc2n1-c1ccc(Cl)cc1C(c1ccccc1)=NC2	133 to 134
O=C(O)CCCCCC=C(c1ccccc1)c1ccccc1	88 to 89
C=C(C)OC1OC(n2cc(C)c(=O)n(CC(=O)c3ccccc3)c2=O)CC1OC(=O)c1ccccc1 (stereo not given)	112 to 113
CCOC(=O)c1cnn2c1nc(NC(C)CC)c1cnc3c(cnn3CC)c12 (stereo not given)	94 to 97
C[C@@H](NC(=O)[C@@H](NC(=O)OCc1ccccc1)C(Cc1ccccc1)C(=O)O)C(=O)O (stereo not given in full)	158 to 159
N#Cc1ccc(OCCCOc2ccc(-c3cc4ccc(C#N)cc4o3)cc2)cc1	208 to 210
CCOc1ccc(OCC)c(C[C@@H](C(=O)[C@H](Cc2cc(OCC)ccc2OCC)N2C(=O)c3ccccc3C2=O)N2C(=O)c3ccccc3C2=O)c1	92 to 93
CCCC(=NOCC)C1=C(O)CC(c2c(C)c(C)c(C)c3cc(C(C)=O)oc23)CC1=O (stereo not given)	154
Nc1ncnc2cccc(Oc3ccc(F)cc3)c12	188 to 190
COc1ccccc1C(=C/C=C/C(=O)Oc1ccc([N+](=O)[O-])cc1)c1ccccc1OC	142 to 143
CC(SC#N)C(=O)N(CC(=O)OC(C)(C)C)C1CCCC1 (stereo not given)	76 to 78
CC1C(=O)Nc2cc(N)c(N)cc21 (stereo not given)	> 300
COc1cc(Cc2cnc(NC(C)=N)nc2N)cc(OC)c1OC	207
CC(C)(C)c1ccc(C2C=C(c3ccc(C#C[Si](C)(C)C)cc3)NN2c2ccccc2)cc1 (stereo not given)	160 to 162
Cc1c(NC(=O)NCCCO)c(C)c2c(c1-c1ccccc1)OCC2c1ccc(C(C)C)cc1 (stereo not given)	145 to 146
N#CCC(=O)Nc1ccc(N)c([N+](=O)[O-])c1	218 to 221
C=C(C)C1(CC(C)C)CCN(C(Cc2ccccc2)C(=O)NC)C1=O (stereo not given)	91 to 92
COC(=O)c1cc(I)c(OC)c2c1OCO2	162 to 164
Cc1cc2c(OCc3ccc(C#N)cc3)cccc2o1	84 to 85
Cc1c(C(=O)Nc2ccc(N3CCN(CCO)CC3)c(C#N)c2)cnn1-c1ccc(F)cc1	179 to 180
CC(C)OP(=O)(CC1(C(=O)O)CCCC1)OC(C)C	53 to 57

SMILES	melting point [°C]
CN(C(=O)/C=C/CSc1nc(N)cc(Cl)n1)c1ccccc1	152 to 154
CC1CCN(CCOc2ccc(NC(=O)CC(=O)c3ccc(-c4ccccc4)cc3)cc2Cl)CC1	135 to 139
CN(C)C=Cc1ncc([N+](=O)[O-])n1CCOC(=O)c1ccccc1	153 to 154
COc1c(NC(=O)c2ccccc2)cccc1C(=O)NC1C(Cl)=CC(C(F)(c2ccc(Cl)cc2)C(F)(F)F)=CC1(Cl)OC (stereo not given)	163 to 166
CCOC(=O)c1cncc(OC)c1CCCO	85 to 89
CCOC(=O)CN(CC(=O)OCC)c1ccc(C=O)c(O)c1	190
O=C(NC1CCN(CCC2CCOc3ccccc32)CC1)c1ccncc1 (stereo not given)	122 to 123
COc1cc(Cl)nc(NC(=O)NS(=O)(=O)C(C)S(=O)(=O)N2CCCC2)n1 (stereo not given)	158 to 160
Nc1ccc(Oc2cccc3ccccc23)nc1	82.2 to 83.7
CCCN1CCCC1CNC(=O)c1c(OC)ccc(Br)c1OC (single isomer, unassigned; (-))	103 to 104
Clc1cccc(Nc2ccc(Oc3ccccc3)cc2)n1	69 to 73
COc1ccc(C=O)cc1-c1cccs1	137 to 138
CNC(=O)c1cccc(NC(=O)C2(c3ccccc3)CCCC2)c1	147
O=C1CC(CCN2CCC(c3c[nH]c4ccccc34)CC2)c2ccccc2N1 (stereo not given)	115 to 117
Cc1ccc(C)c(OCc2ccccc2C(=O)O)c1	162 to 163
C=CCc1cccc2c(=O)cc(C=Cc3ccccc3)oc12	142
NC(=O)[C@@H]1[C@H](Nc2c(Br)cnc3[nH]c(-c4cncnc4)nc23)[C@H]2C=C[C@@H]1C2	> 300
CNC(SC)=C(C#N)C#N	119 to 120
COc1cc(C(=O)NC2CCN(C(=O)CN(C)C)CC2)ccc1Nc1ncc2c(n1)N(C1CCCCC1)CC(F)(F)C(=O)N2C	190 to 191
Cc1ccc(C(=O)CCCC(C)C(=O)O)cc1 (stereo not given)	50 to 50.5
CNC(=O)N(O)C(C)c1ccc(OC)cc1 (stereo not given)	102 to 104

SMILES	melting point [°C]
O=C(O)c1cc(NCCCc2ccc([N+](=O)[O-])cc2)ccc1O	229 to 231
Cc1ccc(C(=O)O)cc1OCc1ccccc1	159 to 161
O=C(O)C(=O)c1ccc(OCCOc2ccc3cc4ccccc4cc3c2)cc1	213 to 214
CCCC(=O)c1ccc(N2CCOCC2)cc1	64.5 to 65.5
Nc1cc(C(O)=S)cc(SCc2ccccc2)c1-c1ccccc1	170 to 172
C#CC1(O)C=CC2C3CCC4=CC(=O)CCC4C3C(Cl)CC21CC (stereo not given)	202
CC(C=O)(CCc1c[nH]c2ccccc12)NC(=O)OC1C2CC3CC(C2)CC1C3 (stereo not given)	178 to 179
CCNC(=O)Nc1nc2cc(-c3cnc(OC)nc3)ccn2n1	243 to 248
COC(=O)c1cc2c(cc1O)OCO2	100 to 101
COc1cc2cc3c(nc2cc1OC)CCc1ccc(N)cc1-3	185
Oc1ccc2c(-c3ccccc3O)noc2c1	164 to 166
CCCSc1cc2c(c3c1OC(C)(C)C3)C(c1cccc(C(=O)O)c1)=NC(C)(C)C2	206 to 208
O=C(O)C=CC(=O)c1cccs1	139 to 142
COc1cccc([C@H]2O[C@H](CC(=O)Nc3ccc4oc(C(=O)O)c(OC(C)C)c4c3)C(=O)N(CC(C)(C)CO)c3ccc(Cl)cc32)c1OC	174 to 175
CC(=O)c1cnc2c(cnn2Cc2ccco2)c1O	108 to 110
O=C(O)CCCCCCCn1cnc(-c2ccccc2Cl)c1-c1ccccc1Cl	145 to 146
CC(C)CCN1C(=O)C(NC(=O)Oc2ccccc2)C(=O)N(c2ccccc2)c2ccccc21 (stereo not given)	70
CN1CC[C@]2(c3ccccc3)CCCC[C@H]2C1 (relative stereo)	72 to 73
CCCCCS(=O)(=O)NCC(=O)O	87 to 90

From a melting point compilation (Tetko et al.; mined from patent text by program, amines drawn as free bases though some values may be those of a salt)
